Experimental data published in patent publication US20220305015A1, “COMBINATORIAL THERAPY TARGETING PARP1 AND RTK” (Board of Regents, The University of Texas System, priority 2019, published 2022).

How the values were obtained:
[1] = system: SUM149-derived talazoparib-resistant (BR) cells; experiment: MTT assay, cell survival; type: cell-based; details: for cross-resistance of BR cells to PARPi: talazoparib-resistant BR cells, MTT assay
Method: (§1) Cells were seeded at a concentration of 1,000 cells/well in a 96-well plate and cultured overnight before treatments with inhibitors. Inhibitor-containing media was refreshed every 3 days for a 6-day treatment schedule. Cells were incubated with 0.5 mg/ml thiazolyl blue tetrazolium bromide (Sigma-Aldrich) for 2 hours, and formazan crystals were dissolved using DMSO. Optical density at 565 nm was measured and survival percentages were calculated by normalizing the optical density value of each treatment group to that of the control group, treated with DMSO only. Half-maximal inhibitory concentrations of inhibitors were calculated using the standard curve interpolate function in GraphPad Prism 8.
For Western blot signal quantification, signal intensities were analyzed using Image Studio Lite (version 5.2; LI-COR Biosciences). Signals of PARP1, PARylation, FGFR3, and phosphorylated FGFR were first normalized to house-keeping proteins (tubulin, actin, or GAPDH) of each sample before being normalized to the control groups. Every independent experiment repeat was quantified individually. Fold changes in Western blot signals were analyzed by a nonparametric Friedman test using the GraphPad Prism 8.0 software. A p value of less than 0.05 was considered statistically significant: *p <0.05; **p <0.002; ***p <0.001. Combination index experiments were designed according to the Chou-Talalay method^39, and results were calculated using Compusyn software.

[2] = system: SUM149-derived talazoparib-resistant (BR) cells; experiment: Colony formation assay; type: cell-based; details: colony formation assays; BR cells vs SUM149 parental cells
Method: SUM149 cells (600 cells/well), BR# 09 cells (800 cells/well), and BR# 17 cells (1,000 cells/well) were seeded into a 12-well plate 18 hours before treatments. Inhibitor-containing media was refreshed every 2 days. Cells were fixed using 4% paraformaldehyde after 10-14 days of treatment. Colonies were stained with 0.5% crystal violet before plates were imaged, and colony number was quantified using the Celigo imaging cytometer (Nexcelom Bioscience). Cell survival rate was calculated by normalizing the number of colonies in each well to that of the vehicle-treated well on the same culture plate.

[3] = system: HCC1806-BR cells; experiment: MTT assay, survival of HCC1806-BR and HCC1806 parental cells; type: cell-based; details: 6 days of PARPi
Method: FIGS. 7A-7B. Activation of FGFR3 in HCC1806-BR cells. […] HCC1806-BR cells were developed by treating HCC1806 cells with […] talazoparib continuously for 9 months. Survival of HCC1806-BR and HCC1806 parental cells in response to talazoparib, olaparib, and rucaparib was measured by exposing cells to various concentrations of the indicated PARPi for 6 days before performing the MTT assay. (FIG. 7B) Antibody arrays of receptor tyrosine kinase activation in HCC1806 parental cells and HCC1806-BR cells. Cells were treated with either dimethyl sulfoxide (DMSO) or talazoparib overnight before being harvested for RTK antibody array analysis. PBS, phosphate-buffered saline.
as §1

[4] = system: BR# 17 cells; experiment: yH2AX foci immunofluorescence staining after MMS; type: cell-based; details: after MMS removal
Method: FIGS. 2A-2C: Inhibition of FGFR3 decreases DNA damage repair. (FIG. 2A) SUM149-derived talazoparib-resistant (BR)# 17 cells were treated for 1 hour with methyl methanesulfonate (MMS), talazoparib (Tala), and PD173074 (PD) as indicated. After MMS removal, cells were cultured for the indicated time before immunofluorescence staining. Representative images of yH2AX (green) and DNA (blue) are shown. […] (FIG. 2B) For comet assay analysis, BR# 09 cells were incubated for another 3 hours after MMS removal. DNA damage was normalized to that of the talazoparib-treated group. Mean ±standard deviation is shown (n >100). (FIG. 2C) Combination index (CI) of talazoparib and PD173074 in BR cells, measured by colony formation assay. Analysis of variance was used for statistical comparisons.
Immunofluorescence staining and confocal microscopy were performed as previously described (Chen, et al., 2019). Cells were treated with DMSO (solvent control), talazoparib (125 nM for BR# 09; 250 nM for BR# 17), PD173074 (10 μM), or the combination of talazoparib and PD173074 for the time indicated. […] In both immunostaining and the proximity ligation assay, images of the cells were captured and analyzed with an LSM 710 laser confocal microscope and Zeiss Zen software (Carl Zeiss) and foci counting was performed using BlobFinder (Allalou and Wahlby, 2020).

[5] = system: BR# 09 cells; experiment: BR# 09 orthotopic xenograft mouse model; type: in vivo, mice; details: for tumor growth: BR# 09 model, oral gavage daily, olaparib 40, AZD4547 8, talazoparib 0.25, PD173074 15 mg/kg per day; for talazoparib-induced FGFR phosphorylation in tumors: 3 days
Method: (§2) Animal studies were performed following a protocol approved by The University of Texas MD Anderson Cancer Center Institutional Animal Care and Use Committee. Female nude mice were purchased from the Department of Experimental Radiation Oncology at MD Anderson. For BR# 09 and BR# 17 xenograft mouse models, two million cells were mixed with 50% (v/v) growth factor reduced Matrigel matrix (Corning) and inoculated into the mammary fat pads of 6- to 8-week-old female nude mice. For the 4T1 model, female Balb/c mice were purchased from Jackson Laboratory. A total of 50,000 4T1 cells were mixed with Matrigel matrix and inoculated into the mammary fat pad of 6-week-old female Balb/c mice. Inhibitors were dissolved in vehicle solvent containing 10% dimethylacetamide (Sigma-Aldrich), 5% Kolliphor HS 15 (Sigma-Aldrich), and 85% phosphate-buffered saline (Evans et al., 2017). […] Treatment with inhibitors started when tumor volumes reached a mean of 120 mm^3. Mice were treated using oral gavage daily for 20 days followed by 3 days with no drugs to prevent severe weight loss. After the first cycle, treatment was continued on a schedule of 6 days on and 1 day off. Mouse weight and tumor volume were measured three times every week. Tumor volume was estimated using the following formula: volume (mm^3) =length (mm)×width (mm)×0.5 width (mm), where length is the longest axis of the tumor. Mice were euthanized using CO2 when the tumor volume reached 2,000 mm^3. For the blood chemical test, mouse cardiac blood was collected by veterinarians in the Department of Veterinary Medicine and Surgery at MD Anderson after 16 days of treatment. Concentrations of alanine aminotransferase, aspartate aminotransferase, and blood urea nitrogen in Balb/c mice were referred to North American colonies of Charles River Balb/c mice.

[6] = system: BR# 17 cells; experiment: BR# 17 orthotopic xenograft mouse model; type: in vivo, mice; details: BR# 17 model; oral gavage daily; olaparib 40, AZD4547 8, talazoparib 0.25, PD173074 15 mg/kg per day
Method: as §2

[7] = biological target: His-tagged PARP1 recombinant protein (UniProt P09874)
[8] = biological target: T1, FGFR3 (Homo sapiens, UniProt P22607); experiment: Western blot of FGFR phosphorylation in cells treated with MMS and talazoparib; type: cell-based; details: BR# 09 and BR# 17 cells; 5 μM FGFRi
T1 construct: endogenous in cells; host or cells: SUM149 parental cells and SUM149-derived talazoparib-resistant BR cells (BR#09, BR#17)
Method: (FIG. 8B) BR# 17 cells were treated with 250 nM talazoparib and 0.01% MMS and FGFRi for 1 hour before being fixed and subjected to immunofluorescence staining with antibodies against FGFR3 (TexasRed, red) and yH2AX (FITC, green).

[9] = system: p-Y158 PARP1; experiment: Western blot of Y158-phosphorylated PARP1 in BR cells; type: cell-based
Description: FIGS. 3A-3E: FGFR3 mediates PARP inhibitor resistance by phosphorylating PARP1 at Y158 residue. (FIG. 3A) Proximity ligation assay (PLA) signals of FGFR3 and PARP1 (red), phalloidin (green), and DNA (blue) were merged in representative images of the treatment indicated (MMS, methyl methanesulfonate; Tala, talazoparib; PD, PD173074; BR, SUM149-derived talazoparib-resistant cells). Mean ±95% confidence interval PLA signals in each cell nucleus are shown in the histograms (n >100). *p <0.05; ***p <0.001; n.s., not significant. (FIG. 3B) Cell survival of BR cells with PARP1 knockdown expressing hemagglutinin-tagged vector control (Neo), wild-type PARP1 (WT), or PARP1^Y158F (Y158F) mutant in response to talazoparib, measured by MTT assay (mean ±standard deviation; n >3). (FIG. 3C) BR# 17 cells were treated with MMS, talazoparib, and PD173074 as indicated for Western blot analysis. (FIG. 3D) Combination index (CI) of talazoparib and PD173074 in BR# 17 cells expressing PARP1^WT or PARP1^Y158F measured by MTT assay. (FIG. 3E) Cells were harvested at different time points after 40 minutes of treatment with talazoparib and MMS. […]
The precipitated protein complex was then washed and subjected to Western blot analysis performed as described previously (Chen, et al., 2019). Signals were detected using the ImageQuant 4000 system (GE Healthcare) and quantified using Image Studio Lite.

[10] = biological target: T2, PARP1 (Homo sapiens, UniProt P09874); experiment: PARP trapping assay (chromatin-bound PARP1); type: cell-based; details: BR cells, 10 μM PD173074, 100 nM talazoparib, MMS
T2 construct: endogenous in cells; host or cells: SUM149-derived talazoparib-resistant (BR) cells
T2 sequence (P09874 whole entry): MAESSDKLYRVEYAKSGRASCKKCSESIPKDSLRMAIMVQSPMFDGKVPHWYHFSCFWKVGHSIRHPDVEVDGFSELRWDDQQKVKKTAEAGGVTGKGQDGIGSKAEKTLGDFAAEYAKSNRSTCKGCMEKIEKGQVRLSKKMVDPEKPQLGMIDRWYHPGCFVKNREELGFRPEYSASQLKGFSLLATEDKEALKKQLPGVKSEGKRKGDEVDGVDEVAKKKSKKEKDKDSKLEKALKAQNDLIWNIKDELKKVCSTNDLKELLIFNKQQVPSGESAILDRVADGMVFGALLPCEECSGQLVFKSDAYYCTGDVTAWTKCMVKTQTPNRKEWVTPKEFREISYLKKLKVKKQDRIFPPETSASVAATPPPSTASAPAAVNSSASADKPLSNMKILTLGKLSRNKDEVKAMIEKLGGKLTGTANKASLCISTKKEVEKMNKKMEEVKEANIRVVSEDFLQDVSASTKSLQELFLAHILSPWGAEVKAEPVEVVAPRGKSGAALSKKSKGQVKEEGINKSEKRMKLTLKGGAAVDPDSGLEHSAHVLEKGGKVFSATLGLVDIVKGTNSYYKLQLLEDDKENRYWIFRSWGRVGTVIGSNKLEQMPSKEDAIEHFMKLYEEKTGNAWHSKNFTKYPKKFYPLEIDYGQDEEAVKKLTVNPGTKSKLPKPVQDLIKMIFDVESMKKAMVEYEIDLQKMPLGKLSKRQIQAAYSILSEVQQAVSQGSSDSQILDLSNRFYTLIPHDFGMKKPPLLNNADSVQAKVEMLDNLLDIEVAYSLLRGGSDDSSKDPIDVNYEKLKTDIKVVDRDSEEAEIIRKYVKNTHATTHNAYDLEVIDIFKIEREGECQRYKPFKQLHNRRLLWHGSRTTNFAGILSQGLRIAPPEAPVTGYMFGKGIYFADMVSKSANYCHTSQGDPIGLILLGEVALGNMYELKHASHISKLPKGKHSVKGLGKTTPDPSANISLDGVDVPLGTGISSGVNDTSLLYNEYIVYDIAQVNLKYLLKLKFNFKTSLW

T1 sequence (P22607 23-806): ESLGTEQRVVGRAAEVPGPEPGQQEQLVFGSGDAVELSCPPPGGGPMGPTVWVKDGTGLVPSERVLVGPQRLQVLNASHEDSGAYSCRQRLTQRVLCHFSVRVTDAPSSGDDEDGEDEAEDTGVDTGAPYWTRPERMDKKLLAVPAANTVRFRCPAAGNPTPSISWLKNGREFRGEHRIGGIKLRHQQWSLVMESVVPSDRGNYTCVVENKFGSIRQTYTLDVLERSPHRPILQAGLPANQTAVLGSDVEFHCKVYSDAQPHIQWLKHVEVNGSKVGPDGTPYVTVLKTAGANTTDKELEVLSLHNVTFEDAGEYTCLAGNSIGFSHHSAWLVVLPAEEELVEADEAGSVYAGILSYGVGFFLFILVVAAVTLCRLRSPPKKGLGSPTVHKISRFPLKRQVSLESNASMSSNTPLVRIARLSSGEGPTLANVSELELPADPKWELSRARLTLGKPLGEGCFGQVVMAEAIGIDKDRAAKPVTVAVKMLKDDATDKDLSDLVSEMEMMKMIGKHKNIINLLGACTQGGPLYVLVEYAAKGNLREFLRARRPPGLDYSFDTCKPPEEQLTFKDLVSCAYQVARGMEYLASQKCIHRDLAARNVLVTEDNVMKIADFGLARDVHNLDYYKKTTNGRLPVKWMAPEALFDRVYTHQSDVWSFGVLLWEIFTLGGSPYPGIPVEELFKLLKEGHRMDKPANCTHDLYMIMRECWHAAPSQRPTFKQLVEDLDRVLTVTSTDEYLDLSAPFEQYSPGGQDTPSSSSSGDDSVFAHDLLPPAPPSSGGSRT
His-tagged PARP1 recombinant protein, sequence (P09874 whole entry, looked up): as the sequence (P09874 whole entry) above

Compound | resistance of HCC1806-BR cells compared with HCC1806 parental cells [3] | tumor growth [5] | tumor growth [6] | cross-resistance of BR cells to PARPi [1] | also measured
Cn1ncnc1[C@H]1c2n[nH]c(=O)c3cc(F)cc(c23)N[C@@H]1c1ccc(F)cc1 [talazoparib] | more resistant | did not inhibit tumor growth | did not inhibit tumor growth |  | half-maximal inhibitory concentration in BR cells relative to parental cells ([1]; MTT assays, BR cells vs SUM149 parental cells): more than 100 fold; increase in resistance to talazoparib on PARP1 knockdown ([1]; SUM149, BR# 09 and BR# 17 cells with shPARP1 vs non-targeting shRNA control): ≥ 10 fold; half-maximal inhibitory concentration in BR cells relative to parental cells [2]: more than 100 fold; yH2AX foci at 8 hours compared with 4 hours [4]: significantly decreased; FGFR3 phosphorylation in tumors ([5]; tumors harvested after 3 days of treatment, talazoparib alone): induced
C[C@]1(c2nc3c(C(N)=O)cccc3[nH]2)CCCN1 [veliparib] |  |  |  | cross-resistance | 
O=C(c1cc(Cc2n[nH]c(=O)c3ccccc23)ccc1F)N1CCN(C(=O)C2CC2)CC1 [olaparib] | more resistant | did not inhibit tumor growth | did not inhibit tumor growth | cross-resistance | 
activated FGFR kinase domain |  |  |  |  | tyrosine phosphorylation in in vitro kinase assay (Western blot with anti-phospho-tyrosine antibodies; mass spectrum analysis) [7]: FGFR can phosphorylate PARP1 at tyrosine (Y)158 and Y176 amino acids
AZD4547 |  | not | inhibited tumor growth |  | 
CNCc1ccc(-c2[nH]c3cc(F)cc4c3c2CCNC4=O)cc1 [rucaparib] | more resistant |  |  | cross-resistance | 
CCN(CC)CCCCNc1ncc2cc(-c3cc(OC)cc(OC)c3)c(NC(=O)NC(C)(C)C)nc2n1 [PD173074] |  | did not inhibit tumor growth | did not inhibit tumor growth |  | FGFR phosphorylation in response to MMS and talazoparib [8]: inhibited; yH2AX foci at 8 hours compared with 4 hours [4]: significantly decreased; p-Y158 PARP1 level [9]: diminished; talazoparib-induced PARP1 trapping [10]: prolong; body weight ([5]; BR xenograft mouse models, PD173074 15 mg/kg per day, alone or with talazoparib 0.25 mg/kg per day, long-term treatment): no loss of body weight; talazoparib-induced FGFR phosphorylation in tumors ([5]; PD173074 10 mg/kg per day): inhibited; talazoparib-induced FGFR phosphorylation in tumors ([5]; PD173074 20 mg/kg per day): less than the basal levels
